From patent US9545389B2, “Baclofen and acamprosate based therapy of macular degeneration disorders” (PHARNEXT, priority 2012, dated 2017)

B1: BDNF: Brain-derived neurotrophic factor, used as a positive control (protein, UniProt P23560 19-247, looked up)
Neurotrophic factor BDNF …: APMKEANIRGQGGLAYPGVRTHGTLESVNGPKAGSRGLTSLADTFEHVIEELLDEDQKVRPNEENNKDADLYTSRVMLSSQVPLEPPLLFLLEEYKNYLDAANMSMRVRRHSDPARRGELSVCDSISEWVTAADKKTAVDMSGGTVTVLEKVPVSKGQLKQYFYETKCNPMGYTKEGCRGIDKRHWNSQCRTTQSYVRALTMDSKKRIGWRFIRIDTSCVCTLTIKRGR

Experiments:
Format in all cases: cell-based
[1] = system: Rat dopaminergic neurons (mesencephalic culture); experiment: TH neurons survival test after 48 h 6-OHDA injury on dopaminergic neurons; details: for In vitro 6OHDA resistance: TH neurons survival after 48 h 6-OHDA (20 μM) injury
Procedure: Rat dopaminergic neurons were cultured as described by Schinelli et al. (1988). Pregnant female rats of 15 days gestation were killed by cervical dislocation (Rats Wistar; Janvier) and the foetuses removed from the uterus. The embryonic midbrains were removed and placed in ice-cold medium of Leibovitz (L15; PanBiotech) containing 2% of Penicillin-Streptomycin (PS; PanBiotech) and 1% of bovine serum albumin (BSA; PanBiotech). Only the ventral portions of the mesencephalic flexure were used for the cell preparations as this is the region of the developing brain rich in dopaminergic neurons. The midbrains were dissociated by trypsinisation for 20 min at 37° C. (Trypsin EDTA 1×; PanBiotech). The reaction is stopped by the addition of Dulbecco's modified Eagle's medium (DMEM; PanBiotech) containing DNAase I grade II (0.1 mg/ml; PanBiotech) and 10% of foetal calf serum (FCS; Invitrogen). Cells were then mechanically dissociated by 3 passages through a 10 ml pipette and centrifuged at 180×g for 10 min at +4° C. on a layer of BSA (3.5%) in L15 medium. The supernatant was discarded and the cells of pellet were re-suspended in a defined culture medium consisting of Neurobasal (Invitrogen) supplemented with B27 (2%; Invitrogen), L-glutamine (2 mM; PanBiotech) and 2% of PS solution and 10 ng/ml of Brain-derived neurotrophic factor (BDNF, PanBiotech) and 1 ng/ml of Glial-Derived Neurotrophic Factor (GDNF, PanBiotech). Viable cells were counted in a Neubauer cytometer using the trypan blue exclusion test. The cells were seeded at a density of 40 000 cells/well in 96 well-plates (pre-coated with poly-L-lysine (Greiner)) and are cultured at 37° C. in a humidified air (95%)/CO2 (5%) atmosphere. Half of the medium was changed every 2 days with fresh medium. Five to six percents of the neuronal cell population were dopaminergic neurons. […]
Data are expressed in percentage of control conditions (no intoxication, no 6OHDA=100%) in order to express the 6OHDA injury. All values are expressed as mean+/−SEM (s.e. mean) of the 3 cultures (n=6 wells per condition per culture). […]

[2] = system: Rat cortical neurons; experiment: MetO assay (oxidative stress) in human amyloid-β1-42 intoxicated cortical neurons; parameters: key: − and −− intensity of lowering effect of compositions; − and −− intensity of lowering effect of compositions; details: Aβ1-42 1.25 μM 4 hours; lowering effect
Procedure: (§1) Rat cortical neurons were cultured as described by Singer et al., 1999 [28]. Briefly pregnant female rats of 15 days gestation were killed by cervical dislocation (Rats Wistar) and the fetuses were removed from the uterus. The cortex were removed and placed in ice-cold medium of Leibovitz (L15) containing 2% of Penicillin 10.000 U/ml and Streptomycin 10 mg/ml and 1% of bovine serum albumin (BSA). Cortex were dissociated by trypsin (0.05%) for 20 min at 37° C. The reaction was stopped by the addition of Dulbecco's modified Eagle's medium (DMEM) containing DNase1 grade II (0.1 mg/mL) and 10% of fetal calf serum (FCS). Cells were then mechanically dissociated by 3 serial passages through a 10 ml pipette. Cells were then centrifuged at 515×g for 10 min at 10° C. The supernatant was discarded and the pellet of cells will be re-suspended in a defined culture medium consisting of Neurobasal supplemented with B27 (2%), L-glutamine (0.2 mM), 2% of PS solution and 10 ng/mL of BDNF. Viable cells were counted in a Neubauer cytometer using the trypan blue exclusion test. […]
(§2) Data are expressed in percentage of control conditions (no intoxication, no amyloid=100%) in order to express the amyloid injury. All values are expressed as mean+/−SEM (s.e. mean) of the 3 cultures (n=6 wells per condition). […]

[3] = system: Rat cortical neurons; experiment: Cytoplasmic cytochrome C (CytoC) assay in human amyloid-β1-42 intoxicated cortical neurons; parameters: key: − and −− intensity of lowering effect of compositions; − and −− intensity of lowering effect of compositions; details: Aβ1-42 1.25 μM 4 hours; lowering effect
Procedure: as §1, §2

Molecule	In vitro 6OHDA resistance [1]	In vitro MetO level [2]	In vitro CytC level [3]	protection of dopaminergic neurons from 6-OHDA injury ([1]; 1 hour pre-treatment at 1.85 nM, positive control)
CC(=O)NCCCS(=O)(=O)O [Acamprosate]	improvement	−	−	
NCC(CC(=O)O)c1ccc(Cl)cc1 (stereo not shown) [Baclofen]	improvement	−	−	
B1				significantly protected
